# Measurements taken from US20240279215A1 (Cytokinetics, Incorporated, priority 2022, published 2024).
# Target: human NAMPT (Homo sapiens (Human), UniProt P43490)
# Test: NMN fluorescence biochemical assay (human recombinant NAMPT enzyme assay)
# Description: Compounds described herein were assayed for their ability to stimulate the synthesis of nicotinamide mononucleotide (NMN) by the enzyme NAMPT. The human recombinant enzyme assay measures the activation of the enzyme activity by compounds using recombinant enzyme and substrates in a buffered cell-free system. The assay conditions closely mimic cellular environments. Dose responses were measured using an assay to detect the formation of nicotinamide mono-nucleotide. All experiments were performed in the 384-well format. Generally, 0.5 μL of DMSO containing varying concentrations of the test compound was mixed with 10 μL of the enzyme reagent solution. Enzyme reactions were initiated with the addition of […] containing the substrates. The final assay conditions were as follows: 6 nM human NAMPT, 2.5 mM ATP, 20 μM PRPP and 150 μM nicotinamide in 50 mM HEPES, pH 7.2, 1 mM DTT, 1 mM CHAPS 50 mM NaCl, 100 mM MgCl2. Following an incubation of 60 min at ambient temperature, 10 μL of 20% acetophenone in DMSO was added, followed by 10 μL of 2 M KOH and 40 μL of formic acid. The plates were read for fluorescence (Excitation/Emission=355 nm/460 nm) using an EnVision plate reader after 40 mins of incubation at ambient temperature.
# Chain of human NAMPT (P43490 whole entry): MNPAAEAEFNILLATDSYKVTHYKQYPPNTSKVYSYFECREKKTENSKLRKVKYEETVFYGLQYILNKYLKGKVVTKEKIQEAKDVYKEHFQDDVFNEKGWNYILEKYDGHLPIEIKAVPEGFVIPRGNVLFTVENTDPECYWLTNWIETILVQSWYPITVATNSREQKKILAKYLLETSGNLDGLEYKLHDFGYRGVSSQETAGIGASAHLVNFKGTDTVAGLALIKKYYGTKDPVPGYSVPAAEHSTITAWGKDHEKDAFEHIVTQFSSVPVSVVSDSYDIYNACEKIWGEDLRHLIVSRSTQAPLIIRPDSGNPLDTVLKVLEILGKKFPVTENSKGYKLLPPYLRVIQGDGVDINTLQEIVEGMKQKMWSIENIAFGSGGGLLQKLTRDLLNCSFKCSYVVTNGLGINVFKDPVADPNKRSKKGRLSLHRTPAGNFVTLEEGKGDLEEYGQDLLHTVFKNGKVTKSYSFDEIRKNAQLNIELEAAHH
Structure (SMILES),AC1.4 Human,EC50
"O=C(Nc1ccc(CC2CCN(C(=O)N3CCOCC3)CC2)cc1)OCc1cnco1 [Compound 458, oxazol-5-ylmethyl (4-((1-(morpholine-4-carbonyl)piperidin-4-yl)methyl)phenyl)carbamate]",0.13 µM,15.2 µM
"Cn1nc(C(F)F)cc1C(=O)NCc1ccc(NC(=O)OCc2ccc(Cl)cc2)cc1 [Compound 345, (4-chlorophenyl)methyl N-[4-({[5-(difluoromethyl)-2-methylpyrazol-3-yl]formamido}methyl)phenyl]carbamate]",13.49 µM,20.3 µM
"CC(=O)N1CCOC(c2ccc(NC(=O)OCc3ccc(Cl)cc3)cc2)C1 (centres unmarked) [Compound 281, (4-chlorophenyl)methyl N-[4-(4-acetylmorpholin-2-yl)phenyl]carbamate]",3.56 µM,46.9 µM
"O=C(Cc1ncco1)NCc1ccc(NC(=O)OCc2ccc(Cl)cc2)cc1 [Compound 297, (4-chlorophenyl)methyl N-(4-{[2-(1,3-oxazol-2-yl)acetamido]methyl}phenyl)carbamate]",4.65 µM,19.8 µM
"O=C(Nc1ccc(CC2CCN(C(=O)C3CC(F)(F)C3)CC2)cc1)OCc1cnco1 [Compound 470, oxazol-5-ylmethyl (4-((1-(3,3-difluorocyclobutane-1-carbonyl)piperidin-4-yl)methyl)phenyl)carbamate]",0.98 µM,37.5 µM
"CC(=O)N1CCC2(CC(c3ccc(NC(=O)OCc4cnco4)cc3F)C2)C1 (single isomer, unassigned) [Compound 373]",0.013 µM,0.24 µM
"COC(=O)N1C2CCC1CC(Cc1ccc(NC(=O)OCc3cnco3)cc1)C2 (centres unmarked) [Compound 407, methyl 3-(4-(((oxazol-5-ylmethoxy)carbonyl)amino)benzyl)-8-azabicyclo[3.2.1]octane-8-carboxylate]",0.26 µM,8.55 µM
"COc1ccc(COC(=O)Nc2ccc(CN3CC(S(C)(=O)=O)C3)cc2)cc1 [Compound 324, (4-methoxyphenyl)methyl N-{4-[(3-methanesulfonylazetidin-1-yl)methyl]phenyl}carbamate]",7.47 µM,50.9 µM
"CN(C)S(=O)(=O)N1CCC(Cc2ccc(NC(=O)OCc3ccc(Cl)cc3)cc2)CC1 [Compound 34, 4-chlorobenzyl (4-((1-(N,N-dimethylsulfamoyl)piperidin-4-yl)methyl)phenyl)carbamate]",0.38 µM,0.82 µM
"N#Cc1ccc(COC(=O)Nc2ccc(Cc3ccncc3)cc2)cc1 [Compound 306, 4-cyanobenzyl (4-(pyridin-4-ylmethyl)phenyl)carbamate]",4.97 µM,13.9 µM
"CO[C@H]1CC[C@@H](NC(=O)Cc2ccc(NC(=O)OCc3ccc(Cl)cc3)cc2)CC1 [Compound 280, (4-chlorophenyl)methyl N-[4-({[(1s,4s)-4-methoxycyclohexyl]carbamoyl}methyl)phenyl]carbamate]",3.51 µM,14.5 µM
"CC(C)n1nccc1C(=O)N(C)Cc1ccc(NC(=O)OCc2ccc(Cl)cc2)cc1 [Compound 131, (4-chlorophenyl)methyl N-(4-{[1-(2-isopropylpyrazol-3-yl)-N-methylformamido]methyl}phenyl)carbamate]",1.05 µM,2.55 µM
"O=C(Nc1ccc(CNC(=O)c2ccnn2C2CCC2)cc1)OCc1ccc(Cl)cc1 [Compound 327, (4-chlorophenyl)methyl N-(4-{[(2-cyclobutylpyrazol-3-yl)formamido]methyl}phenyl)carbamate]",8.21 µM,21.1 µM
"O=C(Nc1ccc(CNC(=O)c2c(F)cncc2F)cc1)OCc1ccc(Cl)cc1 [Compound 147, (4-chlorophenyl)methyl N-(4-{[15.2 (3,5-difluoropyridin-4-yl)formamido]methyl}phenyl)carbamate]",1.22 µM,5.21 µM
"Cc1ccc(Cc2ccc(NC(=O)OCc3cncs3)cc2)cn1 [Compound 114, thiazol-5-ylmethyl (4-((6-methylpyridin-3-yl)methyl)phenyl)carbamate]",0.94 µM,19.7 µM
"O=C(Nc1ccc(CNC(=O)c2ccncc2F)cc1)OCc1ccc(Cl)cc1 [Compound 78, (4-chlorophenyl)methyl N-(4-{[(3-fluoropyridin-4-yl)formamido]methyl}phenyl)carbamate]",0.65 µM,7.44 µM
"O=C(Nc1ccc(CNC(=O)N2CCC2)cc1)OCc1ccc(Cl)cc1 [Compound 265, (4-chlorophenyl)methyl N-{4-[(azetidine-1-carbonylamino)methyl]phenyl}carbamate]",2.94 µM,23.2 µM

Structure (SMILES),AC1.4 Human,EC50
"COc1ccc(COC(=O)Nc2ccc(CN3CCN(c4ccccn4)CC3)cc2)cc1 [Compound 83, (4-methoxyphenyl)methyl N-(4-{[4-(pyridin-2-yl)piperazin-1-yl]methyl}phenyl)carbamate]",0.66 µM,8.11 µM
"COC(=O)N1CCC[C@@H](c2ccc(NC(=O)OCc3cnco3)cc2)C1 [Compound 383, methyl (S)-3-(4-(((oxazol-5-ylmethoxy)carbonyl)amino)phenyl)piperidine-1-carboxylate]",2.58 µM,20.3 µM
"O=C(Nc1ccc(CN2CCOC2=O)cc1)OCc1ccc(Cl)cc1 [Compound 242, (4-chlorophenyl)methyl N-{4-[(2-oxo-1,3-oxazolidin-3-yl)methyl]phenyl}carbamate]",2.38 µM,19.8 µM
"Cc1cnn(C)c1C(=O)NCc1ccc(NC(=O)OCc2ccc(Cl)cc2)cc1 [Compound 45, (4-chlorophenyl)methyl N-(4-{[(2,4-dimethylpyrazol-3-yl)formamido]methyl}phenyl)carbamate]",0.46 µM,1.88 µM
"Cc1cnoc1C(=O)NCc1ccc(NC(=O)OCc2ccc(Cl)cc2)cc1 [Compound 268, (4-chlorophenyl)methyl N-(4-{[(4-methyl-1,2-oxazol-5-yl)formamido]methyl}phenyl)carbamate]",3.05 µM,13.8 µM
"O=C(Nc1ccc(CC2CCN(C(=O)N3CCC3)CC2)cc1)OCc1cnco1 [Compound 468, oxazol-5-ylmethyl (4-((1-(azetidine-1-carbonyl)piperidin-4-yl)methyl)phenyl)carbamate]",0.13 µM,14.5 µM
"COc1cc(C(=O)N[C@@H](C)c2ccc(NC(=O)OCc3ccc(Cl)cc3)cc2)cnc1C [Compound 110, (4-chlorophenyl)methyl N-{4-[(1S)-1-[(5-methoxy-6-methylpyridin-3-yl)formamido]ethyl]phenyl}carbamate]",0.91 µM,3.46 µM
"Cc1ccc(C(=O)NCc2ccc(NC(=O)OCc3cn[nH]c3)cc2)cn1 [Compound 9, (1H-pyrazol-4-yl)methyl (4-((6-methylnicotinamido)methyl)phenyl)carbamate]",0.15 µM,16 µM
"CC(C)C(=O)N1CCC(c2ccc(NC(=O)OCc3cnco3)cc2)CC1 [Compound 7, 1,3-oxazol-5-ylmethyl N-{4-[1-(2-methylpropanoyl)piperidin-4-yl]phenyl}carbamate]",0.11 µM,20.8 µM
"COc1ccc(COC(=O)Nc2ccc(CC3CCN(C4COC4)CC3)cc2)cc1 [Compound 67, 4-methoxybenzyl (4-((1-(oxetan-3-yl)piperidin-4-yl)methyl)phenyl)carbamate]",0.59 µM,21.3 µM
"COc1ccc(COC(=O)Nc2ccc(COC3CCN(C(C)=O)CC3)cc2)cc1 [Compound 217, 4-methoxybenzyl (4-(((1-acetylpiperidin-4-yl)oxy)methyl)phenyl)carbamate]",1.98 µM,24.4 µM
"CC(O)(c1ccncc1)c1ccc(NC(=O)OCc2ccc(Cl)cc2)cc1 (centres unmarked) [Compound 247, 4-chlorobenzyl (4-(1-hydroxy-1-(pyridin-4-yl)ethyl)phenyl)carbamate]",2.45 µM,16.5 µM
"O=C(Nc1ccc(CNC(=O)N2CCOCC2)cc1)OCc1ccc(Cl)cc1 [Compound 270, (4-chlorophenyl)methyl N-{4-[(morpholine-4-carbonylamino)methyl]phenyl}carbamate]",3.14 µM,47.2 µM
"CC(=O)N1CCC[C@@H](c2ccc(NC(=O)OCc3cnco3)cc2)C1 [Compound 381, oxazol-5-ylmethyl (S)-(4-(1-acetylpiperidin-3-yl)phenyl)carbamate]",3.37 µM,17 µM
"CN(Cc1ccc(NC(=O)OCc2ccc(Cl)cc2)cc1)C(=O)c1ccn[nH]1 [Compound 91, (4-chlorophenyl)methyl N-{4-[(N-methyl-1-2H-pyrazol-3-ylformamido)methyl]phenyl}carbamate]",0.74 µM,3.8 µM
"CCc1ncoc1C(=O)N(C)Cc1ccc(NC(=O)OCc2ccc(Cl)cc2)cc1 [Compound 176, (4-chlorophenyl)methyl N-(4-{[1-(4-ethyl-1,3-oxazol-5-yl)-N-methylformamido]methyl}phenyl)carbamate]",1.47 µM,4.56 µM
"Cc1ccc(NC(=O)Cc2ccc(NC(=O)OCc3ccc(Cl)cc3)cc2)cn1 [Compound 199, (4-chlorophenyl)methyl N-(4-{[(6-methylpyridin-3-yl)carbamoyl]methyl}phenyl)carbamate]",1.77 µM,5.28 µM
